In ChEMBL document CHEMBL5034037, “Synthesis, Characterization, and Preclinical Evaluation of a Small-Molecule Prostate-Specific Membrane Antigen-Targeted Monomethyl Auristatin E Conjugate” (J Med Chem, 2021):
Active and inactive are the calls of the source. No cut-off for these calls is given here. Where a SMILES comes first, the peptide text is derived from it. [ ]: non-standard residue; d: D form. The star is where a group is joined. Dolaproine = CO[C@@H]([C@@H]1CCCN1)[C@@H](C)C(=O)O; Dil = CC[C@H](C)[C@H](NC)[C@@H](CC(=O)O)OC; X2 = C[C@@H](N*)[C@@H](O)c1ccccc1; NMeV = CN[C@H](C(=O)O)C(C)C

How the values were obtained:
CWR22R [1] = assay: Induction of intracellular reactive oxygen species production in human 22Rv1 cells incubated for 1 hr measured at CC50 concentration by amperometric method; assay type: functional, cell-based
[2] = Acute toxicity in iv dosed ICR male mouse assessed as maximum non-lethal dose; assay type: organism-based; settings: in vivo
[3] = Acute toxicity in Wistar rat assessed as decrease in porphyrin release from eye mucous membrane at 30 mg/kg, iv; assay type: organism-based; settings: in vivo
PC-3 [4] = assay: Induction of intracellular reactive oxygen species production in human PC-3 cells incubated for 1 hr measured at CC50 concentration by amperometric method; assay type: functional, cell-based
[5] = Acute toxicity in Wistar rat assessed as decrease in motor activity; settings: in vivo
PC-3 [6] = assay: Cytotoxicity against human PC-3 cells not expressing PMSA measured using MTT assay; assay type: functional
[7] = Acute toxicity in Wistar rat assessed as damage in liver at 30 mg/kg, iv; assay type: organism-based; settings: in vivo
[8] = Acute toxicity in iv dosed Wistar male rat assessed as maximum non-lethal dose; assay type: organism-based; settings: in vivo
CWR22R [9] = assay: Cytotoxicity against human 22Rv1 cells expressing PMSA measured using MTT assay; assay type: functional
[10] = Acute toxicity in Wistar rat assessed as decrease in porphyrin release from nose mucous membrane at 30 mg/kg, iv; assay type: organism-based; settings: in vivo

| SMILES | Activity (CWR22R [1]) | Activity [2] [mg/kg] | Activity [3] | Activity (PC-3 [4]) | Activity [5] | CC50 (PC-3 [6]) [nM] | Activity [7] | Activity [8] [mg/kg] | CC50 (CWR22R [9]) [nM] | Activity [10] |
| --- | --- | --- | --- | --- | --- | --- | --- | --- | --- | --- |
| CC[C@H](C)[C@@H]([C@@H](CC(=O)N1CCC[C@H]1[C@H](OC)[C@@H](C)C(=O)N[C@H](C)[C@@H](O)c1ccccc1)OC)N(C)C(=O)[C@@H](NC(=O)[C@@H](NC)C(C)C)C(C)C (H-[NMeV]V[Dil][Dolaproine]-X2) | Active | 0.1 | Toxic | Active | Toxic | 0.97 | Toxic | 0.29 | 1.44 | Toxic |
| CC(=O)O[C@@]12CO[C@@H]1C[C@H](O)[C@@]1(C)C(=O)[C@H](O)C3=C(C)[C@@H](OC(=O)[C@H](O)[C@@H](NC(=O)OC(C)(C)C)c4ccccc4)C[C@@](O)([C@@H](OC(=O)c4ccccc4)[C@H]21)C3(C)C [DOCETAXEL ANHYDROUS] | – | – | – | – | – | 6.7 | – | – | 3.3 | – |
